# Data from ChEMBL document CHEMBL3046274, “Toxicity of imidacloprid to developmental stages of Rhynchophorus ferrugineus (Curculionidae: Coleoptera): Laboratory and field tests” (Crop Prot, 2006).
# Active and inactive are the calls of the source. The calls are words filed in the database; no cut-off is given here.
# Experiments:
# [1] = system: Rhynchophorus ferrugineus; test: Pesticidal activity against Rhynchophorus ferrugineus (red palm weevil) cocoon assessed as mortality at 2 ppm administered by dipping for 3 min measured at 18 hr post-treatment relative to control; type: functional
# [2] = system: Rhynchophorus ferrugineus; test: Pesticidal activity against Rhynchophorus ferrugineus (red palm weevil) cocoon assessed as mortality at 2 ppm administered by dipping for 3 min measured at 24 hr post-treatment relative to control; type: functional
# [3] = system: Rhynchophorus ferrugineus; test: Pesticidal activity against Rhynchophorus ferrugineus (red palm weevil) larvae assessed as mortality at 0.5 ppm, po at 114 hr post-treatment relative to control; type: functional
# [4] = system: Rhynchophorus ferrugineus; test: Pesticidal activity against Rhynchophorus ferrugineus (red palm weevil) larvae assessed as mortality at 1.5 ppm, po at 114 hr post-treatment relative to control; type: functional
# [5] = system: Rhynchophorus ferrugineus; test: Pesticidal activity against Rhynchophorus ferrugineus (red palm weevil) larvae assessed as mortality at 4 ppm, po at 114 hr post-treatment relative to control; type: functional
# [6] = system: Rhynchophorus ferrugineus; test: Pesticidal activity against Rhynchophorus ferrugineus (red palm weevil) larvae assessed as mortality at 1.5 ppm, po at 90 hr post-treatment relative to control; type: functional
# [7] = system: Rhynchophorus ferrugineus; test: Pesticidal activity against Rhynchophorus ferrugineus (red palm weevil) larvae assessed as mortality at 2 ppm, po at 72 hr post-treatment relative to control; type: functional
# [8] = system: Rhynchophorus ferrugineus; test: Pesticidal activity against Rhynchophorus ferrugineus (red palm weevil) larvae assessed as mortality at 0.5 ppm, po at 48 hr post-treatment relative to control; type: functional
# [9] = system: Rhynchophorus ferrugineus; test: Pesticidal activity against adult Rhynchophorus ferrugineus (red palm weevil) assessed as mortality at 1000 ppm administered topically at 36 hr post-treatment; type: functional
# [10] = system: Rhynchophorus ferrugineus; test: Pesticidal activity against Rhynchophorus ferrugineus (red palm weevil) cocoon assessed as mortality at 20 ppm administered by dipping for 3 min measured at 114 hr post-treatment relative to control; type: functional
# [11] = system: Rhynchophorus ferrugineus; test: Contact toxicity against Rhynchophorus ferrugineus (red palm weevil) adults assessed as time required for 50% mortality at 2.5 ml/l for 5 min; type: functional
# [12] = system: Rhynchophorus ferrugineus; test: Contact toxicity against Rhynchophorus ferrugineus (red palm weevil) adults assessed as time required for 100% reversible knockdown at 1.5 ml/l for 5 min; type: functional
# [13] = system: Rhynchophorus ferrugineus; test: Contact toxicity against Rhynchophorus ferrugineus (red palm weevil) adults assessed as time required for 50% reversible knockdown at 3.5 ml/l for 5 min; type: functional
# [14] = system: Rhynchophorus ferrugineus; test: Contact toxicity against Rhynchophorus ferrugineus (red palm weevil) adults assessed as time required for 50% reversible knockdown at 2.5 ml/l for 5 min; type: functional
# [15] = system: Rhynchophorus ferrugineus; test: Contact toxicity against Rhynchophorus ferrugineus (red palm weevil) adults assessed as time required for 50% reversible knockdown at 1.5 ml/l for 5 min; type: functional
# [16] = system: Rhynchophorus ferrugineus; test: Contact toxicity against Rhynchophorus ferrugineus (red palm weevil) adults assessed as time required for 100% mortality at 3.5 ml/l for 2 min; type: functional
# [17] = system: Rhynchophorus ferrugineus; test: Contact toxicity against Rhynchophorus ferrugineus (red palm weevil) adults assessed as time required for 50% mortality at 1.5 ml/l for 2 min; type: functional
# [18] = system: Rhynchophorus ferrugineus; test: Contact toxicity against Rhynchophorus ferrugineus (red palm weevil) adults assessed as time required for 100% reversible knockdown at 3.5 ml/l for 2 min; type: functional
# [19] = system: Rhynchophorus ferrugineus; test: Contact toxicity against Rhynchophorus ferrugineus (red palm weevil) adults assessed as time required for 100% reversible knockdown at 1.5 ml/l for 2 min; type: functional
# [20] = system: Rhynchophorus ferrugineus; test: Pesticidal activity against Rhynchophorus ferrugineus (red palm weevil) cocoon assessed as mortality at 20 ppm administered by dipping for 3 min measured at 90 hr post-treatment relative to control; type: functional
# [21] = system: Rhynchophorus ferrugineus; test: Pesticidal activity against Rhynchophorus ferrugineus (red palm weevil) cocoon assessed as mortality at 0.5 ppm administered by dipping for 3 min measured at 72 hr post-treatment relative to control; type: functional
# [22] = system: Rhynchophorus ferrugineus; test: Pesticidal activity against Rhynchophorus ferrugineus (red palm weevil) cocoon assessed as mortality at 1 ppm administered by dipping for 3 min measured at 72 hr post-treatment relative to control; type: functional
# [23] = system: Rhynchophorus ferrugineus; test: Pesticidal activity against adult Rhynchophorus ferrugineus (red palm weevil) infested date palm tree assessed as disorientation of collected live stage larvae at 20 ml/4l of water applied through soil-drench irrigation measured after 3 weeks relative to control; type: functional, organism-based
# [24] = system: Rhynchophorus ferrugineus; test: Pesticidal activity against Rhynchophorus ferrugineus (red palm weevil) larvae infested date palm tree assessed as non-feeding status of collected live stage larvae at 20 ml/4l of water applied through soil-drench irrigation measured after 3 weeks relative to control; type: functional, organism-based
# [25] = system: Rhynchophorus ferrugineus; test: Pesticidal activity against Rhynchophorus ferrugineus (red palm weevil) larvae infested date palm tree assessed as reduction in mandibles movement of collected live stage larvae at 20 ml/4l of water applied through soil-drench irrigation measured after 3 weeks relative to control; type: functional, organism-based
# [26] = system: Rhynchophorus ferrugineus; test: Pesticidal activity against Rhynchophorus ferrugineus (red palm weevil) cocoon assessed as mortality at 0.5 ppm administered by dipping for 3 min measured at 48 hr post-treatment relative to control; type: functional
# [27] = system: Rhynchophorus ferrugineus; test: Pesticidal activity against adult Rhynchophorus ferrugineus (red palm weevil) assessed as mortality at 1.5 ppm, po at 90 hr post-treatment relative to control; type: functional
# [28] = system: Rhynchophorus ferrugineus; test: Pesticidal activity against adult Rhynchophorus ferrugineus (red palm weevil) assessed as mortality at 2 ppm, po at 90 hr post-treatment relative to control; type: functional
# [29] = system: Rhynchophorus ferrugineus; test: Pesticidal activity against adult Rhynchophorus ferrugineus (red palm weevil) assessed as mortality at 1.5 ppm, po at 48 hr post-treatment relative to control; type: functional
# [30] = system: Rhynchophorus ferrugineus; test: Pesticidal activity against adult Rhynchophorus ferrugineus (red palm weevil) assessed as mortality at 2 ppm, po at 18 hr post-treatment relative to control; type: functional
# [31] = system: Rhynchophorus ferrugineus; test: Pesticidal activity against adult Rhynchophorus ferrugineus (red palm weevil) assessed as mortality at 2 ppm, po at 114 hr post-treatment relative to control; type: functional
# [32] = system: Rhynchophorus ferrugineus; test: Pesticidal activity against Rhynchophorus ferrugineus (red palm weevil) larvae assessed as mortality at 1000 ppm administered topically at 48 hr post-treatment; type: functional
# [33] = system: Rhynchophorus ferrugineus; test: Pesticidal activity against adult Rhynchophorus ferrugineus (red palm weevil) assessed as mortality at 500 ppm administered topically at 18 hr post-treatment; type: functional
# [34] = system: Rhynchophorus ferrugineus; test: Pesticidal activity Rhynchophorus ferrugineus (red palm weevil) larvae assessed as time required after hatching for 100% mortality at 1.5 ml/l administered topically measured up to 14 days relative to control; type: functional
# [35] = system: Rhynchophorus ferrugineus; test: Pesticidal activity against Rhynchophorus ferrugineus (red palm weevil) cocoons assessed as time required for total mortality at 3.5 ml/l administered by dipping for 30 secs; type: functional
# [36] = system: Rhynchophorus ferrugineus; test: Pesticidal activity against Rhynchophorus ferrugineus (red palm weevil) cocoons assessed as time required for total mortality at 1.5 ml/l administered by dipping for 30 secs; type: functional
# [37] = system: Rhynchophorus ferrugineus; test: Pesticidal activity against Rhynchophorus ferrugineus (red palm weevil) cocoons assessed as time required for total mortality at 3.5 ml/l administered by dipping for 5 secs; type: functional
# [38] = system: Rhynchophorus ferrugineus; test: Pesticidal activity against adult Rhynchophorus ferrugineus (red palm weevil) assessed as mortality at 500 ppm administered topically at 72 hr post-treatment; type: functional
# [39] = system: Rhynchophorus ferrugineus; test: Pesticidal activity against Rhynchophorus ferrugineus (red palm weevil) larvae assessed as mortality at 500 ppm administered topically at 36 hr post-treatment; type: functional
# [40] = system: Rhynchophorus ferrugineus; test: Pesticidal activity against adult Rhynchophorus ferrugineus (red palm weevil) assessed as time required for 100% mortality at 2.5 ml/l administered topically; type: functional
# [41] = system: Rhynchophorus ferrugineus; test: Pesticidal activity against adult Rhynchophorus ferrugineus (red palm weevil) assessed as time required for reversible knockdown at 2.5 ml/l administered topically; type: functional
smiles,measurement,setting,value
O=[N+]([O-])/N=C1\NCCN1Cc1ccc(Cl)nc1 [IMIDACLOPRID],Activity,[1],0%
same,Activity,[2],0%
same,Activity,[3],100%
same,Activity,[4],100%
same,Activity,[5],100%
same,Activity,[6],100%
same,Activity,[7],100%
same,Activity,[8],38.9%
same,Activity,[9],100%
same,Activity,[10],100%
same,Time,[11],3.2 days
same,Time,[12],4.2 days
same,Time,[13],1.1 days
same,Time,[14],1.1 days
same,Time,[15],3.2 days
same,Time,[16],8.1 days
same,Time,[17],10.1 days
same,Time,[18],3.2 days
same,Time,[19],9 days
same,Activity,[20],72.2%
same,Activity,[21],0%
same,Activity,[22],0%
same,Activity,[23],Active
same,Activity,[24],Active
same,Activity,[25],Active
same,Activity,[26],0%
same,Activity,[27],100%
same,Activity,[28],100%
same,Activity,[29],73.2%
same,Activity,[30],100%
same,Activity,[31],100%
same,Activity,[32],100%
same,Activity,[33],66.7%
same,Time,[34],6 days
same,Time,[35],3.2 days
same,Time,[36],9.6 days
same,Time,[37],5.9 days
same,Activity,[38],72.2%
same,Activity,[39],38.9%
same,Time,[40],8.8 days
same,Time,[41],2 days
